From patent US20110136916A1, “6-SHOGAOL FOR USING IN A METHOD FOR THE TREATMENT OF LEUKEMIA” (China Pharmaceutical University, priority 2009, published 2011)
“Also recorded” adds a separate entry of the source. Where two headings read alike, the source gives them in different places.

Legend:
[1] = tested on: pulmonary carcinoma A549 cells; settings: 48 hours; read-out: IC50 for inhibiting the proliferation of A549 cells; cited from earlier work
[2] = tested on: human acute myelocytic leukemia cell U937; experiment: MTT anti-proliferation, U937; format: cell-based; settings: for IC50: U937, MTT, n = 3; for growth inhibition (activities of cells vs control): U937, 1-20 μM
Protocol: (§1) Cells in logarithmic growth phase were collected and then inoculated in 1˜2×10^4 cells/well in a 96-well plate respectively according to the sizes of cells and whether they attached to the wall, the cells were centrifuged and the supernatant was removed after growing for 24 hours, and then drug administration was carried out according to the groups as below: the drug group and the drug free group were set up for tumor cells (the concentrations ranged from 1˜20 μM), 5 or 6 duplicates were set for each group and the cells were incubated for 24 or 72 hours. The supernatant was removed and 100 μl serum free culture solution containing 0.5 mg/ml MTT (tetrazolium) was added for further incubation for 4 hours, subsequently 100 μl DMSO (dimethyl sulfoxide) was added and the plate was kept on the micro-shaker for 10 minutes, and the OD value was determined on a micro-plate reader at the wavelength of 570 nm. Evaluations on the toxicity were carried out on normal human cell line LO-2 and each test was repeated for three times.

[3] = tested on: normal human cell line LO-2; experiment: MTT toxicity evaluation on normal cell line LO-2; format: cell-based; settings: for growth inhibition of normal hepatic cell line LO-2: LO-2, 1-20 μM
Protocol: as §1

[4] = tested on: human ovarian cancer SK-OV-3 cells; settings: cited from earlier work
[5] = tested on: peripheral blood lymphocytes (PBMC) of clinical leukemia patients; experiment: Annexin V/PI apoptosis of PBMC from leukemia patients; format: cell-based, human; settings: 24 hours
Protocol: After application by the research group and approval by the Ethics Committee of the hospital, the leukemia patients (healthy volunteers) signed the informed consent and their fresh blood was collected and transferred into heparin anticoagulation tubes, then the same volume of serum free D-Hank buffer (preheated at 37° C.) was added to re-suspend the cells, and the suspension was added to the pre-laid human lymphocyte separating medium (preheated at 37° C.), and the volume ratio between the lymphocyte separating medium and the cell suspension should be no lower than 1:1, and the mixture was centrifuged at room temperature (20-30° C.) at 500×g by a horizontal centrifuge for 30 minutes. The upper layer plasma was removed and the white fog layer in the middle was carefully collected and transferred to 5 mL (or 1-2 times of the volume) PBS (or serum free buffer for cell culture), then it was centrifuged at 200×g or 1000 rpm for 10 minutes at room temperature (20-30° C.), and the supernatant was removed, and the obtained precipitation was the peripheral blood lymphocytes (PBMC). The cells were rinsed twice according to the above-mentioned operations at 500×g by the horizontal centrifuge for 10 minutes at room temperature (20-30° C.), subsequently the cells were collected and their cell vitality was detected by using dye exclusion method for living cells (Trypan blue).
The cells were added to a 24-well plate in 3×10^5 cells/mL/well and different concentrations of 6-shogaol (10 and 20 μM) for treatment for 24 hours after they were incubated for 24 hours. Negative control group (the group without drug) and the treatment group with 6-shogaol were set up for PBMCs from different individuals respectively. After the cells were treated with 6-shogaol for 24 hours, they were transferred into 10 mL glass centrifuge tubes and centrifuged at 500 rpm (or 100×g) for 5 minutes to remove the supernatant. The cells were then rinsed with 0.01 M PBS at 500 rpm (or 100×g) for 5 minutes twice. Subsequently, after adding binding solution and staining according to the directions for use of Annexin V/PI double staining kit (BD Company), flow cytometry analysis (Becton Dickinson FACScan Flow Cytometer) was carried out. The FACS data were analyzed by professional operators of the flow cytometer by using FLOWJO software (Tree Star, Calif.) software, the apoptotic rate was counted by the sum of early apoptosis and late apoptosis, and the results were shown in Table 4 and Table 5.

Structure (SMILES): CCCCC/C=C/C(=O)CCc1ccc(O)c(OC)c1 [6-shogaol]
- IC50 [1]: ~60 µM
- IC50 ([2]; Homo sapiens, U-937, 24 h, 24 hours, read-out: Mean IC50 after 24 hours): < 10 µM
- IC50 ([2]; Homo sapiens, U-937, 72 h, 72 hours, read-out: Mean IC50 after 72 hours): < 5 µM
- growth inhibition (activities of cells vs control) ([2]; 24 hours, FIG. 4): significantly decreased
- growth inhibition (activities of cells vs control) ([2]; 72 hours, FIG. 8): significantly decreased
- IC50 ([2]; 24 hours, read-out: Mean IC50 after 24 hours): 7.63 ± 0.47 µM
- IC50 ([2]; 72 hours, read-out: Mean IC50 after 72 hours): 4.93 ± 0.7 µM
- growth inhibition of normal hepatic cell line LO-2 ([3]; 24 hours): didn't inhibit the proliferation
- growth inhibition of normal hepatic cell line LO-2 ([3]; 72 hours): didn't inhibit the proliferation
- toxicity on normal hepatic cells LO-2 ([3]; summary statement): No toxic reaction was found; also recorded: low toxicity
- anti-tumor activities [4]: certain anti-tumor activities
- induction of apoptosis of PBMC of leukemia patients (t-test) ([5]; 30 cases of leukemia patients, 10 and 20 μM): significantly induce the apoptosis
- Apoptotic rate of 10 μM 6-shogaol ([5]; PBMC of patient P1, 10 μM): 38.5 ± 3.7a %
- Apoptotic rate of 20 μM 6-shogaol ([5]; PBMC of patient P1, 20 μM): 56.9 ± 2.2a %
- Apoptotic rate of 10 μM 6-shogaol ([5]; PBMC of patient P2, 10 μM): 27.6 ± 1.3a %
- Apoptotic rate of 20 μM 6-shogaol ([5]; PBMC of patient P2, 20 μM): 50.1 ± 5.4a %
- Apoptotic rate of 10 μM 6-shogaol ([5]; PBMC of patient P3, 10 μM): 47.9 ± 1.6a %
- Apoptotic rate of 20 μM 6-shogaol ([5]; PBMC of patient P3, 20 μM): 72.9 ± 3.1a %
- Apoptotic rate of 10 μM 6-shogaol ([5]; PBMC of patient P4, 10 μM): 35.7 ± 3.8a %
- Apoptotic rate of 20 μM 6-shogaol ([5]; PBMC of patient P4, 20 μM): 69.7 ± 1.6a %
- Apoptotic rate of 10 μM 6-shogaol ([5]; PBMC of patient P5, 10 μM): 40.5 ± 6.1a %
- Apoptotic rate of 20 μM 6-shogaol ([5]; PBMC of patient P5, 20 μM): 61.9 ± 4.2a %
- Apoptotic rate of 10 μM 6-shogaol ([5]; PBMC of patient P6, 10 μM): 29.3 ± 1.7a %
- Apoptotic rate of 20 μM 6-shogaol ([5]; PBMC of patient P6, 20 μM): 52.7 ± 2.3a %
- Apoptotic rate of 10 μM 6-shogaol ([5]; PBMC of patient P7, 10 μM): 44.6 ± 3.8a %
- Apoptotic rate of 20 μM 6-shogaol ([5]; PBMC of patient P7, 20 μM): 75.9 ± 1.7a %
- Apoptotic rate of 10 μM 6-shogaol ([5]; PBMC of patient P8, 10 μM): 31.3 ± 2.7a %
- Apoptotic rate of 20 μM 6-shogaol ([5]; PBMC of patient P8, 20 μM): 64.7 ± 2.4a %
- Apoptotic rate of 10 μM 6-shogaol ([5]; PBMC of patient P9, 10 μM): 27.5 ± 2.9a %
- Apoptotic rate of 20 μM 6-shogaol ([5]; PBMC of patient P9, 20 μM): 44.8 ± 3.9a %
- Apoptotic rate of 10 μM 6-shogaol ([5]; PBMC of patient P10, 10 μM): 42.4 ± 3.1a %
- Apoptotic rate of 20 μM 6-shogaol ([5]; PBMC of patient P10, 20 μM): 73.5 ± 3.7a %
- Apoptotic rate of 10 μM 6-shogaol ([5]; PBMC of patient P11, 10 μM): 29.7 ± 2.4a %
- Apoptotic rate of 20 μM 6-shogaol ([5]; PBMC of patient P11, 20 μM): 50.1 ± 3.3ac %
- Apoptotic rate of 10 μM 6-shogaol ([5]; PBMC of patient P12, 10 μM): 49.3 ± 4.1a %
- Apoptotic rate of 20 μM 6-shogaol ([5]; PBMC of patient P12, 20 μM): 80.8 ± 5.1ac %
- Apoptotic rate of 10 μM 6-shogaol ([5]; PBMC of patient P13, 10 μM): 55.9 ± 2.7a %
- Apoptotic rate of 20 μM 6-shogaol ([5]; PBMC of patient P13, 20 μM): 82.9 ± 2.5ac %
- Apoptotic rate of 10 μM 6-shogaol ([5]; PBMC of patient P14, 10 μM): 26.7 ± 1.9a %
- Apoptotic rate of 20 μM 6-shogaol ([5]; PBMC of patient P14, 20 μM): 39.7 ± 2.6ac %
- Apoptotic rate of 10 μM 6-shogaol ([5]; PBMC of patient P15, 10 μM): 34.5 ± 3.1a %
- Apoptotic rate of 20 μM 6-shogaol ([5]; PBMC of patient P15, 20 μM): 47.9 ± 4.2ab %
- Apoptotic rate of 10 μM 6-shogaol ([5]; PBMC of patient P16, 10 μM): 39.3 ± 2.3a %
- Apoptotic rate of 20 μM 6-shogaol ([5]; PBMC of patient P16, 20 μM): 46.7 ± 1.6ab %
- Apoptotic rate of 10 μM 6-shogaol ([5]; PBMC of patient P17, 10 μM): 44.6 ± 3.8a %
- Apoptotic rate of 20 μM 6-shogaol ([5]; PBMC of patient P17, 20 μM): 55.9 ± 1.7ab %
- Apoptotic rate of 10 μM 6-shogaol ([5]; PBMC of patient P18, 10 μM): 33.1 ± 3.7a %
- Apoptotic rate of 20 μM 6-shogaol ([5]; PBMC of patient P18, 20 μM): 54.7 ± 2.6ac %
- Apoptotic rate of 10 μM 6-shogaol ([5]; PBMC of patient P19, 10 μM): 37.9 ± 4.9a %
- Apoptotic rate of 20 μM 6-shogaol ([5]; PBMC of patient P19, 20 μM): 51.8 ± 7.9ac %
- Apoptotic rate of 10 μM 6-shogaol ([5]; PBMC of patient P20, 10 μM): 52.9 ± 2.7a %
- Apoptotic rate of 20 μM 6-shogaol ([5]; PBMC of patient P20, 20 μM): 63.6 ± 1.2ab %
- Apoptotic rate of 10 μM 6-shogaol ([5]; PBMC of patient P21, 10 μM): 31.5 ± 4.3a %
- Apoptotic rate of 20 μM 6-shogaol ([5]; PBMC of patient P21, 20 μM): 44.5 ± 2.4ab %
- Apoptotic rate of 10 μM 6-shogaol ([5]; PBMC of patient P22, 10 μM): 20.5 ± 3.1a %
- Apoptotic rate of 20 μM 6-shogaol ([5]; PBMC of patient P22, 20 μM): 38.5 ± 2.1ac %
- Apoptotic rate of 10 μM 6-shogaol ([5]; PBMC of patient P23, 10 μM): 36.2 ± 5.7a %
- Apoptotic rate of 20 μM 6-shogaol ([5]; PBMC of patient P23, 20 μM): 67.1 ± 3.7ac %
- Apoptotic rate of 10 μM 6-shogaol ([5]; PBMC of patient P24, 10 μM): 42.7 ± 2.4a %
- Apoptotic rate of 20 μM 6-shogaol ([5]; PBMC of patient P24, 20 μM): 58.7 ± 3.9ac %
- Apoptotic rate of 10 μM 6-shogaol ([5]; PBMC of patient P25, 10 μM): 47.8 ± 2.9a %
- Apoptotic rate of 20 μM 6-shogaol ([5]; PBMC of patient P25, 20 μM): 69.1 ± 3.3ac %
- Apoptotic rate of 10 μM 6-shogaol ([5]; PBMC of patient P26, 10 μM): 43.3 ± 4.9a %
- Apoptotic rate of 20 μM 6-shogaol ([5]; PBMC of patient P26, 20 μM): 56.9 ± 5.2ac %
- Apoptotic rate of 10 μM 6-shogaol ([5]; PBMC of patient P27, 10 μM): 30.9 ± 1.7a %
- Apoptotic rate of 20 μM 6-shogaol ([5]; PBMC of patient P27, 20 μM): 47.6 ± 3.6ab %
- Apoptotic rate of 10 μM 6-shogaol ([5]; PBMC of patient P28, 10 μM): 39.6 ± 2.2a %
- Apoptotic rate of 20 μM 6-shogaol ([5]; PBMC of patient P28, 20 μM): 56.3 ± 3.8ac %
- Apoptotic rate of 10 μM 6-shogaol ([5]; PBMC of patient P29, 10 μM): 33.7 ± 3.5a %
- Apoptotic rate of 20 μM 6-shogaol ([5]; PBMC of patient P29, 20 μM): 42.4 ± 2.9ab %
- Apoptotic rate of 10 μM 6-shogaol ([5]; PBMC of patient P30, 10 μM): 28.6 ± 2.9a %
- Apoptotic rate of 20 μM 6-shogaol ([5]; PBMC of patient P30, 20 μM): 51.9 ± 4.2ac %
